The values that follow come from patent US20250041387A1, “POLYPEPTIDE SEQUENCE OF KDM6B AND APPLICATION OF KDM6B IN REGULATING AND CONTROLLING FUNCTION OF MESENCHYMAL STEM CELL” (BEIJING STOMATOLOGICAL HOSPITAL, CAPITAL MEDICAL UNIVERSITY, priority 2021, published 2025).

Experiment [1] concerns senescent bone marrow mesenchymal stem cells. As to the kind of experiment: β-gal staining in senescent BMSCs of aged mice. The experiment is classed as cell-based, C57BL/6 mice. The note with it: FIG. 5A. On the procedure:
Prior to the start of the experiment, the GENMED staining solution (Reagent E) in the kit was taken out of the refrigerator at −20° C., and thawed in an ice bath. Then 9.5 mL of GENMED dilution (Reagent D) was added into a 15 ml conical centrifuge tube, added with 500 μL of GENMED staining solution (Reagent E), mixed well, and then preheated in a 37° C. thermostatic sink. The obtained mixture was labeled as GENMED staining working solution.

The test system is the same in experiment [2]. Description: ALP activity of senescent BMSCs of aged mice. The experiment is classed as cell-based, C57BL/6 mice. The note with it: 3 days of osteogenic induction, FIG. 5B. The method, then:
• (1) Osteogenic culture medium was purchased from Invitrogen, USA. • (2) Quantification of alkaline phosphatase (ALP) activity • 1) After 3 days of osteogenic induction, the culture medium was discarded, and the cells were washed with PBS twice. • 2) The cells were added with 500 μL of lysis buffer, and incubated at 37° C. for 15 minutes. • 3) The cells were scraped, transferred into a 1.5 mL EP tube, and centrifuged at 14000 rpm at 4° C. for 10 minutes. The supernatant was transferred into a new EP tube to measure the protein concentration, and the procedure was the same as that in Western blot. • 4) The capsule from the alkaline phosphatase kit (Stock substrate Sol.) was dissolved with 5 mL of distilled water under vigorous shaking, and mixed well. • 5) 50 μL of ALP buffer was added to 50 μL of Stock substrate Sol to obtain a mixture. 100 μL of the mixture was added to each well in a 96-well plate, then added with 10 μL of sample, and mixed well. A blank well without sample added was set for zero adjustment. • 6) The plate was incubated at 37° C. for 15 minutes, and the OD value was measured at 405 nm.
Result of ALP activity was calculated according to Y/incubation time/protein concentration. • (3) Alizarin red staining • 1) After two weeks of osteogenic induction, the culture medium was discarded. The cells were washed three times with PBS pre-cooled at 4° C., and fixed with 70% ethanol at 4° C. for 1 hour. • 2) The cells were washed 2 times with double distilled water, and stained with 40 mM alizarin red solution (pH 4.2) at room temperature for 10 minutes. The staining was observed by naked eyes. • 3) The cells were washed 3 times with double-distilled water. • (4) Determination of Ca^2+ concentration

Experiment [3] deals with defected dorsal skin of mice. As to the kind of experiment: Dorsal full-thickness skin defect in mice. It is filed as in vivo, Balb/c mice. More on the design: area of the defect region (dorsal skin): unit not given here. Conditions: for area of the defect region (dorsal skin) / Healing rate (dorsal skin defect): individual mice; for Healing rate (dorsal skin defect): FIG. 18. On the procedure: Fifteen 8-month-old male Balb/c mice were randomly divided into three groups: PBS group, control group and 114 group, with five mice in each group.
Before the establishment of the defect model, the mice were anaesthetized by injection of 4% chloral hydrate at 0.2 ml/20 g, and the skin was prepared. A circular full-thickness skin defect with a diameter of 6 mm on the back of the mice was created using a skin punch. On the day of the defect creation, the third day, the seventh day, the tenth day, the fourteenth day, the seventeenth day, and the twenty-first day after the defect creation, an equal amount of 100 μl of PBS, 10 μl/ml control peptide, and 10 μl/ml 114 peptide was separately injected at four equidistant sites at 2 mm from the edge of the defect.
The defect region was photographed before each injection, and the area of the defect region was calculated by using Image-Pro plus software. The healing rate was calculated as: healing rate=(area of the defect region on day 0-area of the defect region on day 14/21)/area of the defect region on day 0.

Experiment [4] has as its system telomerase reverse transcriptase. As to the kind of experiment: ELISA assay of telomerase reverse transcriptase in SCAPs. The experiment is classed as cell-based, human. Conditions: SCAPs treated with polypeptide, FIG. 8B. The method, then:
• (1) Pre-detection preparation: A standard curve was calculated and plotted using a standard concentration gradient of 400 ng/mL, 200 ng/ml, 100 ng/ml, 50 ng/mL, 25 ng/ml, 12.5 ng/mL, 6.25 ng/mL, and 0 ng/mL. • (2) 100 μL of the standards and samples were added to each well of a 96-well plate. The plate was covered with a provided sealing film, and incubated at 37° C. for 2 hours. The name of the sample was noted on the surface of the sealing film. • (3) The sample in each well was discarded and spin-dried without washing. • (4) 100 μL of Biotin-antibody (1×) was added to each well. The plate was covered with a sealing film, and incubated at […] for 1 hour. If Biotin-antibody (1×) appeared cloudy, Biotin-antibody was warmed to room temperature and stirred gently until clear. • (5) The sample in each well was discarded. Each well was added with 200 μL of Wash Buffer using a multichannel pipette and left to stand for 2 minutes for washing. This process was repeated twice for a total of three times of washing. Complete removal of liquid at each step was critical for good performance. After the last time of washing, the Wash Buffer was discarded, and the 96-well plate was turned upside down and dried with a clean paper. • (6) 100 μL of HRP-avidin (1×) was added to each well. The 96-well microtiter plate was covered with a new sealing film and incubated at 37° C. for 1 hour. • (7) The process of discarding samples and washing in […] was repeated 5 times. • (8) 90 μL of TMB Substrate was added to each well. The plate was incubated in the dark at 37° C. for 15-30 minutes. 50 μL of Stop Solution was added to each well, and the plate was gently taped to mix solution evenly. • (9) The optical density of each well was detected at 450 nm within 5 min using a microtiter plate reader.
(ELISA stands for enzyme-linked immunosorbent assay.)

Several values for one entry are separate records, joined by “and”; a condition that tells them apart may be missing. Identical values can stand only once.

For “FITC-(Acp)-ADLTISHCAADVVRAYGRKKRRQRRR [peptide 114]”, the “number of β-gal positive cells” value in experiment [1] is recorded as “significant reduction”. Besides, the ALP activity result in experiment [2] is reported as “promoted”; in experiment [2] (listed as 114-peptide), 7.612. In addition, the “area of the defect region (dorsal skin)” value was 6226 and 6554 and 6917 and 5532 and 4700 in experiment [3] (Day 0); 1396 and 3701 and 2313 and 983 and 1816 in experiment [3] (Day 10); 681 (2×) and 722 and 486 and 715 in experiment [3] (Day 14). The “Healing rate (dorsal skin defect)” value is 0.7758 and 0.4353 and 0.6656 and 0.8223 and 0.6136 in experiment [3] (Day 10); 0.8906 and 0.8898 and 0.9015 and 0.9121 and 0.8479 in experiment [3] (Day 14). Besides, in experiment [3] (days 0 and 14, compared to PBS and control peptide groups, FIG. 17), the “healing of defected dorsal skin (observation)” value is listed as “significant healing”. Moreover, the entries for the “expression of telomerase reverse transcriptase (ELISA)” value in experiment [4] and in experiment [4] (listed as 114 peptide) were “promoted the expression” and 0.05168, respectively.

Regarding “FITC-(Acp)-KEKSRRVLGNLDLQSYGRKKRRQRRR [peptide 102]”, the “number of β-gal positive cells” value in experiment [1] was “significant reduction”. The figures for the ALP activity result in experiment [2] and in experiment [2] (listed as 102-peptide) were “promoted” and 6.951, respectively. The “expression of telomerase reverse transcriptase (ELISA)” value in experiment [4] was found to be 0.03331.
